Values of other authors in PMC4461526 (Bioorganic & medicinal chemistry, 2015).

Columns and labels:
Human ABCC2 [1] = target: T1, Human ABCC2 (Homo sapiens, UniProt Q92887); settings: ref 30 (Kidron et al.); for IC50: read-out: IC50 (inhibitors of EG)
Human ABCC2 [2] = target: T1, Human ABCC2; settings: ref 30 (Kidron et al.)

T1 sequence (Q92887 whole entry): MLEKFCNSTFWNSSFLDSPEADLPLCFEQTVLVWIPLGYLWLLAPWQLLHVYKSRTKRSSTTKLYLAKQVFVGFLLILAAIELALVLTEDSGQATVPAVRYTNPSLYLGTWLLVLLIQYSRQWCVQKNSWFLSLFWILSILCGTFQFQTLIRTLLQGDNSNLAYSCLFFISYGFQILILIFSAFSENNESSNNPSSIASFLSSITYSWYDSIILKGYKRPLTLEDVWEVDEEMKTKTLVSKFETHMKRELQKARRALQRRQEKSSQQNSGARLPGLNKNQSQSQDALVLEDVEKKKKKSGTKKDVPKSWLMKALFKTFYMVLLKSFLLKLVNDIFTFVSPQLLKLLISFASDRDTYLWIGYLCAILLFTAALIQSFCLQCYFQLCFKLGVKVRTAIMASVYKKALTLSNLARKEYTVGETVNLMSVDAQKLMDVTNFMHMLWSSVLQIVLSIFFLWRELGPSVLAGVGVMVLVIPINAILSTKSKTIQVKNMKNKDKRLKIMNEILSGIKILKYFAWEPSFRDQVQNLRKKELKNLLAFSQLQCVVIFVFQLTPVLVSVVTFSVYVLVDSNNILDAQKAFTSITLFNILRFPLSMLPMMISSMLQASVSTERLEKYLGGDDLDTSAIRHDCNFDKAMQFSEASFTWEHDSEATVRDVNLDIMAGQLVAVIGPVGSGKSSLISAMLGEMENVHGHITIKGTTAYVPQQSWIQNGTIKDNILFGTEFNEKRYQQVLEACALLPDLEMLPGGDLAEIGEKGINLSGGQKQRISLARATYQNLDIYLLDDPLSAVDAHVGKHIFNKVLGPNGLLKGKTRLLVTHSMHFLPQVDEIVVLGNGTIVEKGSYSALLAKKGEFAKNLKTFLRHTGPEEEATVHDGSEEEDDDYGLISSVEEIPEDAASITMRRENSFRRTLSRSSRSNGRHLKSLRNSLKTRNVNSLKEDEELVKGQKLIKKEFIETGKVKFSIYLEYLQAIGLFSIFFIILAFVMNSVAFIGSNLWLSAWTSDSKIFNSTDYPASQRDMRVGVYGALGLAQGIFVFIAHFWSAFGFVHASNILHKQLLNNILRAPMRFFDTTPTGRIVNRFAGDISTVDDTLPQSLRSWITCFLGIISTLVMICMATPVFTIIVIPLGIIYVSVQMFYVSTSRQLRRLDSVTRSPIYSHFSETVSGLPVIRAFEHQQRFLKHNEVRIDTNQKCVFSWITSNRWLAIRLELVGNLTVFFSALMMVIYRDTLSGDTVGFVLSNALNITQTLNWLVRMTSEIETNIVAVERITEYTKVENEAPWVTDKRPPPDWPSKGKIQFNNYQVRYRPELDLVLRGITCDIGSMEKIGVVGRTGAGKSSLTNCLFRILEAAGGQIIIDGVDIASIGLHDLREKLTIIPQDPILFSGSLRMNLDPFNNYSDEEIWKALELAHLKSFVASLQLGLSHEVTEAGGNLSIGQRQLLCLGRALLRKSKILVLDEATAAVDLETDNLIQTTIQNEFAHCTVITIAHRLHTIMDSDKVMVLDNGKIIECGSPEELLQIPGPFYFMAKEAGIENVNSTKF

Row | SMILES | effect on EG transport (Human ABCC2 [1]) | effect on CDCF transport (Human ABCC2 [2]) | IC50 (Human ABCC2 [1]) [µM]
1 | O=C(O)Cc1ccccc1Nc1c(Cl)cccc1Cl [diclofenac] | stimulators |  | 
2 | CCCC1O[C@@H]2C[C@H]3[C@@H]4CCC5=CC(=O)C=C[C@]5(C)[C@H]4[C@@H](O)C[C@]3(C)[C@]2(C(=O)CO)O1 (stereo partly shown) [budes-onide] |  | stimulating | 40 to 60
3 | CSc1ccc2c(c1)N(CCC1CCCCN1C)c1ccccc1S2 (stereo not shown) [thioridazine] |  | stimulating | 40 to 60
4 | C[C@]12CC[C@@H]3c4ccc(OS(=O)(=O)O)cc4CC[C@H]3[C@@H]1CCC2=O [estrone-3-sulfate] | stimulators |  | 
5 | COc1ccc2c(c1)c(CC(=O)O)c(C)n2C(=O)c1ccc(Cl)cc1 [indomethacin] | stimulators |  | 
